Experimental data published in patent US20120015414A1, “Production of organic compounds” (priority 2010, published 2012).

Columns and labels:
OleC and OleD = molecular target: T1, OleC and OleD (Xanthomonas campestris pv. campestris, UniProt Q8PDW5); experiment: Hydrocarbon detection enzyme assay, OleC and OleD without OleA; type: biochemical; settings: substrate incubated with OleC and OleD
T1 construct: His6-tag with thrombin site (implied by Ni-column purification); made in house; host or cells: E. coli One Shot BL21 (DE3) for OleD
Experimental: (§1) Hydrocarbon Detection Enzyme Assay. […] Products were extracted with 250 μl ethyl acetate using 16-hentriacontanone ketone (Tokyo Kasei Kogyo Co., Ltd., Japan) as an internal standard. After vortexing and 5 min of gentle centrifugation, the top solvent layer was transferred to a glass vial and analyzed using a gas chromatograph equipped with a flame ionization detector HP 7890A (Hewlett Packard, Palo Alto) and mass spectrometer HP 5975C (GC-MS-FID). GC was conducted under the following conditions: helium gas, 1.75 ml/min; HP-1 ms column (100% dimethylsiloxane capillary; 30 m by 250 μm by 0.25 μm); temperature ramp, 100° C. to 320° C.; 10° C./min, hold at 320° C. for 5 min, 250° C. injection port, and split at the outlet between MS and FID. The mass spectrometer was run under the following conditions: electron impact at 70 eV and 35 μA. The flame ionization detector was set at 250° C. with hydrogen flow set at 30 ml/min, air set at 400 ml/min, and helium makeup gas set at 25 ml/min.
The identity of the compound was confirmed by the mass spectrum shown above the GC chromatogram in FIG. III-6A, with the major ion, m/z 378, representing the molecular ion.
Next, it was tested if the ketone 14-heptacosanone could also give rise to 14-heptacosene or any other discernible product.

[1] = Spontaneous decarboxylation of synthetic beta-keto acid; settings: synthetic acid from hydrogenolysis of the benzyl ester, no enzyme
OleA [2] = molecular target: T2, OleA (Xanthomonas campestris pv. campestris, UniProt Q8PDX2); experiment: Release of CoASH thiol (DTNB) for assay of OleA substrate range; type: biochemical; settings: for reaction with OleA to release coenzyme A: incubation time in which palmitoyl-CoA reacts completely; for % of Theoretical / CoA Product: starting substrate 65 μM; for % of Theoretical: 65 μM of product is 100% of theoretical yield; for CoA Product: free coenzyme A detected with DTNB, average of triplicate determinations with standard error; for reaction stoichiometry, coenzyme A released per acyl-CoA consumed: substrate allowed to completely react
T2 construct: His-tag (N); made in house; host or cells: E. coli One Shot BL21 (DE3), pET28b+
Experimental: Detecting the Release of CoASH Thiol for Assay of OleA Substrate Range. Release of the free thiol group of CoASH was detected by the addition of 5,5′-dithio-bis-(2-nitrobenzoic acid) (DTNB) measured spectrophotometrically at 412 nm (ε412=13,600 M^−1 cm^−1) (Alexson et al. 1988, J. Biol. Chem. 263:13564-13571; Ellman et al. 1958. Arch Biochem. Biophys. 74:443-450). […] DTNB was incubated with the reaction for 2 min and quantified spectrophotometrically.
Initial Defining of Substrate Specificity and Reaction Products of OleA. Enzymes catalyzing condensation or hydrolysis reactions with acyl-CoA substrates release coenzyme A that can be assayed colorimetrically using DTNB (Alexson et al. 1988. J. Biol. Chem. 263:13564-13571; Skaff et al. 2010. Anal. Biochem. 396:288-296; Sleeman et al. 2004. J. Biol. Chem. 279:6730-6736; Yashiro et al. 1995. Biochim. Biophys. 1258:288-96). […] With purified OleA, DTNB was used to determine the stoichiometry of coenzyme A formation and to begin to discern the substrate specificity of OleA.
First, the coenzyme A product stoichiometry was determined using either myristoyl-CoA or palmitoyl-CoA and allowing the substrate to completely react. With either substrate, the reaction stoichiometry was 1.0 mole of coenzyme A released for each mole of acyl-CoA consumed. In this manner, acyl-CoA chains of different lengths were tested with OleA using a time of incubation in which palmitoyl-CoA reacts completely as described in the Methods section. Under those conditions (Table III-2) palmitoyl-CoA reacted more completely than myristoyl-CoA.

OleA [3] = molecular target: T2, OleA; experiment: GC-MS/GC-FID product analysis of OleA reactions with acyl-CoA substrates; type: biochemical; settings: peak area integration
Experimental: Subsequent experiments were conducted to examine if coenzyme A was formed as a consequence of acyl-group condensation, thioester bond hydrolysis, or some mixture of the two reactions. Based on previous observations (Beller et al. 2010. Appl. Environ. Microbiol. 76:1212-1223; Sukovich et al. 2010. Appl. Environ. Microbiol. 76:3850-62; Friedman et al. 2008. International Patent WO2008/113041), it was known that long-chain ketones were the observed condensation products. In subsequent experiments in this study, it was shown that β-keto acids are the initial products and those decarboxylate quantitatively to the corresponding ketone. In this context, reaction mixtures were solvent extracted and subjected to GC-MS to identify ketones derived from condensation and/or fatty acids derived from acyl chain hydrolysis.
In this context, experiments were conducted with mixtures of fatty acyl-CoA substrates. All pairwise combinations of C10, C12, C14, C16, saturated and C16 monounsaturated (C16:1) acyl-CoA substrates were incubated, extracted, and analyzed for products by GC-MS and GC-FID. In all, 15 product mixtures were analyzed. […] Only with C12 acyl condensation and C14 plus C16:1 condensation were the major products derived from a condensation of fatty acyl chains. In the case of C14 condensations (myristoyl-CoA), the ketone 14-heptacosanone was produced at only slightly lower levels than the hydrolysis product myristic acid.

Synechococcus [4] = experiment: Growth in BG11AN medium supplemented with lactic acid; type: cell-based
Text: To maintain the co-culture of the cyanobacterium (Synechococcus) and the heterotroph (Shewanella), a minimal medium was established that would support growth of both Shewanella and Synechococcus. We started with the preferred medium for Synechococcus, known as BG11. […] A modified Synechococcus minimal medium, denoted here as BG11AN medium, was used and supplemented with lactic acid to test both lactate inhibition and ammonia inhibition. BG11AN has ammonium nitrate at 1.5 g/L replacing the sodium nitrate used in BG11. Shewanella grew well in BG11AN medium. The Synechococcus grew in the BG11AN medium, not as well as in BG11, but acceptably. The cultures in BG11 AN were more of a yellow green than the deep green of the BG11 culture. […] In fact, it stimulated growth at levels up to 0.5 g/L. It was concluded that the BG11AN medium can be used for co-culture of Synechococcus and Shewanella in subsequent experiments.

OleA and OleC = molecular target: T3, OleA and OleC (Xanthomonas campestris pv. campestris, UniProt Q8PDX2); experiment: Hydrocarbon detection enzyme assay, OleA and OleC in admixture; type: biochemical; settings: substrate incubated with OleA and OleC
T3 construct: His-tag (N); made in house; host or cells: E. coli (OleA)
T3 sequence (Q8PDX2 1-338): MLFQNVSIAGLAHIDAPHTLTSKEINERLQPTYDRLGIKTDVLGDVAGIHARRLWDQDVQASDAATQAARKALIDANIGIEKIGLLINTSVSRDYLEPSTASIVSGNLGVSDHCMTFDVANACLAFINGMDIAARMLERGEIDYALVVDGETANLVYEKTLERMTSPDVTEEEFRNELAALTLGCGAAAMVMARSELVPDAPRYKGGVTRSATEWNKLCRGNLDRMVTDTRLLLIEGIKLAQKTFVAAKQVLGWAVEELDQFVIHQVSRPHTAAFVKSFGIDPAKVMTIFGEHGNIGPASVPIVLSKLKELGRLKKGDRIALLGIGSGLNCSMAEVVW
Experimental: as §1
(§2) Role of OleA in olefin biosynthesis. […] Other Ole proteins were purified as described in the methods section and tested in admixture with OleA and with myristoyl-CoA as the substrate. […] The identities of the products were confirmed by mass spectrometry.

OleA, OleC and OleD = molecular target: T4, OleA, OleC and OleD (Xanthomonas campestris pv. campestris, UniProt Q8PDX2); experiment: Hydrocarbon detection enzyme assay, OleA, OleC and OleD; type: biochemical; settings: substrate incubated with OleA
T4 construct: His-tag (N); made in house
T4 sequence (Q8PDX2 1-338): T3 sequence (Q8PDX2 1-338)
Experimental: as §1, §2

Synechococcus [5] = experiment: Effect of growth supplements of the type found in corn steep liquor on Synechococcus; type: cell-based; settings: flasks supplemented
Text: The effects of growth supplements of the type found in corn steep liquor on the growth of Synechococcus and Shewanella were examined.

T1 sequence (Q8PDW5 2-337, added parts left off): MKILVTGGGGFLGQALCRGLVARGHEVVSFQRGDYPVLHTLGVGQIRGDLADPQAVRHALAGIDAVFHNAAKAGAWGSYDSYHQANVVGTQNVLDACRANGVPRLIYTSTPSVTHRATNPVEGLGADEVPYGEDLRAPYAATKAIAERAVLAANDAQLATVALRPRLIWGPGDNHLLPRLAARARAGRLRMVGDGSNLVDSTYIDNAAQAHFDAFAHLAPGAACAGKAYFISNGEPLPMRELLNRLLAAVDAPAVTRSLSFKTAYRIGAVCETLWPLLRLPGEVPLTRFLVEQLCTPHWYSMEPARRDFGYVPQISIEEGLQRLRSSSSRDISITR

SMILES	reaction with OleA to release coenzyme A (OleA [2])	% of Theoretical (OleA [2]) [%]	CoA Product (OleA [2]) [µM]	other results
CCCCCCCCCCCCCC(=O)C(CCCCCCCCCCCC)C(=O)O (racemic) [2-myristoylmyristic acid]	–	–	–	products observed by GC-MS (OleC and OleD): yielded 14-heptacosanone and the expected olefinic product from head-to-head condensation, 14-heptacosene; stability, decarboxylation to 14-heptacosanone [1]: rapid decarboxylation
CCCCCCCCCCCCCC(=O)CCCCCCCCCCCCC [14-heptacosanone]	–	–	–	products observed by GC-MS (OleC and OleD): 14-heptacosene was not detected
CC(=O)SCCNC(=O)CCNC(=O)[C@H](O)C(C)(C)COP(=O)(O)OP(=O)(O)OC[C@H]1O[C@@H](n2cnc3c(N)ncnc32)[C@H](O)[C@@H]1OP(=O)(O)O [Acetyl-CoA]	did not	–	–	–
CCCCCCCCCC(=O)SCCNC(=O)CCNC(=O)[C@H](O)C(C)(C)COP(=O)(O)OP(=O)(O)OC[C@H]1O[C@@H](n2cnc3c(N)ncnc32)[C@H](O)[C@@H]1OP(=O)(O)O [Decanoyl-CoA]	undergo reaction to release coenzyme A	42	27.2 ± 1.6	Products, ketones (Cx) and fatty acids (FAx), in order of decreasing abundance (OleA [3]; second fatty acyl-CoA chain C10): FA10 > C19
CC(O)C(=O)O (centres unmarked) [Lactic acid]	–	–	–	level at which growth was not inhibited (Synechococcus [4]): ≤ 1 g/L; level at which growth was stimulated (Synechococcus [4]): up to 0.5 g/L
CCCCCCCCCCCC(=O)SCCNC(=O)CCNC(=O)[C@H](O)C(C)(C)COP(=O)(O)OP(=O)(O)OC[C@H]1O[C@@H](n2cnc3c(N)ncnc32)[C@H](O)[C@@H]1OP(=O)(O)O [Lauroyl-CoA]	undergo reaction to release coenzyme A	79	51.4 ± 1.9	–
CCCCCCCCCCCCCC(=O)SCCNC(=O)CCNC(=O)[C@H](O)C(C)(C)COP(=O)(O)OP(=O)(O)OC[C@H]1O[C@@H](n2cnc3c(N)ncnc32)[C@H](O)[C@@H]1OP(=O)(O)O [Myristoyl-CoA]	–	97	63.2 ± 0.4	reaction stoichiometry, coenzyme A released per acyl-CoA consumed (OleA [2]): 1.0 mole of coenzyme A released for each mole of acyl-CoA consumed; Products, ketones (Cx) and fatty acids (FAx), in order of decreasing abundance (OleA [3]; second fatty acyl-CoA chain C14): FA14 > C27; products observed by GC-MS (OleA and OleC): produced only 14-heptacosanone; products observed by GC-MS (OleA, OleC and OleD): the olefin 14-heptacosene (20.4 min) was observed in addition to the peak corresponding to 14-heptacosanone
CCCCCCCC(=O)SCCNC(=O)CCNC(=O)[C@H](O)C(C)(C)COP(=O)(O)OP(=O)(O)OC[C@H]1O[C@@H](n2cnc3c(N)ncnc32)[C@H](O)[C@@H]1OP(=O)(O)O [Octanoyl-CoA]	undergo reaction to release coenzyme A	12	8.0 ± 2.2	–
CCCCCC/C=C\CCCCCCCC(=O)SCCNC(=O)CCNC(=O)[C@H](O)C(C)(C)COP(=O)(O)OP(=O)(O)OC[C@H]1O[C@@H](n2cnc3c(N)ncnc32)[C@H](O)[C@@H]1OP(=O)(O)O [Palmitoleoyl-CoA]	undergo reaction to release coenzyme A	57	36.9 ± 0.9	Products, ketones (Cx) and fatty acids (FAx), in order of decreasing abundance (OleA [3]; second fatty acyl-CoA chain C16:1): FA16:1 > C31:2
CCCCCCCCCCCCCCCC(=O)SCCNC(=O)CCNC(=O)[C@H](O)C(C)(C)COP(=O)(O)OP(=O)(O)OC[C@H]1O[C@@H](n2cnc3c(N)ncnc32)[C@H](O)[C@@H]1OP(=O)(O)O [Palmitoyl-CoA]	–	100	65.0 ± 0.9	reaction stoichiometry, coenzyme A released per acyl-CoA consumed (OleA [2]): 1.0 mole of coenzyme A released for each mole of acyl-CoA consumed; Products, ketones (Cx) and fatty acids (FAx), in order of decreasing abundance (OleA [3]; second fatty acyl-CoA chain C16): FA16 > C31
CCCCCCCCCCCCCCCCCC(=O)SCCNC(=O)CCNC(=O)[C@H](O)C(C)(C)COP(=O)(O)OP(=O)(O)OC[C@H]1O[C@@H](n2cnc3c(N)ncnc32)[C@H](O)[C@@H]1OP(=O)(O)O [Stearoyl-CoA]	undergo reaction to release coenzyme A	29	18.7 ± 1.8	–
N[C@@H](CCC(=O)O)C(=O)O [glutamate]	–	–	–	effect on growth of Synechococcus (Synechococcus [5]): slightly better growth
NC(=O)CC[C@H](N)C(=O)O [glutamine]	–	–	–	effect on growth of Synechococcus (Synechococcus [5]): slightly better growth
